Results reported in ChEMBL document CHEMBL3867466, “Synthesis and biological evaluation of novel 2,4,5-triarylimidazole-1,2,3-triazole derivatives via click chemistry as α-glucosidase inhibitors” (Bioorg Med Chem Lett, 2016).

What follows are compounds tested against T1, Alpha-glucosidase MAL12 (Saccharomyces cerevisiae S288c, UniProt P53341) (assay: Inhibition of bakers yeast alpha-glucosidase using p-nitrophenyl-alpha-D-glucopyranoside as substrate incubated for 15 mins followed by substrate addition measured after 30 mins by spectrophotometric analysis).
T1 sequence (P53341 whole entry): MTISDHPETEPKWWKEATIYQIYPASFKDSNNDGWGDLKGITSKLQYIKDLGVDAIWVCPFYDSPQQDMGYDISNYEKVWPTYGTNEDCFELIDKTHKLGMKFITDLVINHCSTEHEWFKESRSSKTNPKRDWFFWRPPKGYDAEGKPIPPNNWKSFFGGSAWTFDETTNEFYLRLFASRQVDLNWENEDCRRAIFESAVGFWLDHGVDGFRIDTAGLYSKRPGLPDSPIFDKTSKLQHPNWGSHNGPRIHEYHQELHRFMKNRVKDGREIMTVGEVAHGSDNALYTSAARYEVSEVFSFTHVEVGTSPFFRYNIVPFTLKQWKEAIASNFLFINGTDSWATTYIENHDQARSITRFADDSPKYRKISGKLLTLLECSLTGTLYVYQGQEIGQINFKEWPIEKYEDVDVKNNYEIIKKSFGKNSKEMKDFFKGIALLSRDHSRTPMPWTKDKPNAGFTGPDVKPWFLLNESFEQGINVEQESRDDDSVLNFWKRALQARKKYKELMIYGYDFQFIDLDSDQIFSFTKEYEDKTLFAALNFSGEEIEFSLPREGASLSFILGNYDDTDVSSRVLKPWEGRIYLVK

IC50 | Compound
30.1 µM | Cc1ccc(NC(=O)Cn2cc(Cn3c(-c4cccc(F)c4)nc(-c4ccccc4)c3-c3ccccc3)nn2)c(C)c1
22.8 µM | O=C(Cn1cc(Cn2c(-c3ccc(F)cc3)nc(-c3ccccc3)c2-c2ccccc2)nn1)Nc1ccc(Cl)cc1Cl
48.2 µM | COc1ccc(NC(=O)Cn2cc(Cn3c(-c4cccc(Cl)c4)nc(-c4ccccc4)c3-c3ccccc3)nn2)cc1
17 µM | CCOc1ccc(NC(=O)Cn2cc(Cn3c(-c4ccc(C(=O)OC)cc4)nc(-c4ccccc4)c3-c3ccccc3)nn2)cc1
44.2 µM | CCOc1ccc(NC(=O)Cn2cc(Cn3c(-c4cccc(Cl)c4)nc(-c4ccccc4)c3-c3ccccc3)nn2)cc1
27 µM | COc1ccccc1-c1nc(-c2ccccc2)c(-c2ccccc2)n1Cc1cn(CC(=O)Nc2ccc(C)cc2)nn1
36.9 µM | CCOc1ccccc1NC(=O)Cn1cc(Cn2c(-c3ccccc3F)nc(-c3ccccc3)c2-c2ccccc2)nn1
24.2 µM | COc1ccc(NC(=O)Cn2cc(Cn3c(-c4cccs4)nc(-c4ccccc4)c3-c3ccccc3)nn2)cc1
22 µM | O=C(Cn1cc(Cn2c(-c3ccc(Br)cc3)nc(-c3ccccc3)c2-c2ccccc2)nn1)Nc1ccc(F)cc1
20.3 µM | COc1cc(-c2nc(-c3ccccc3)c(-c3ccccc3)n2Cc2cn(CC(=O)Nc3cccc(C)c3)nn2)cc(OC)c1OC
32.1 µM | Cc1ccccc1NC(=O)Cn1cc(Cn2c(-c3cccc(F)c3)nc(-c3ccccc3)c2-c2ccccc2)nn1
19.6 µM | CCOc1ccc(NC(=O)Cn2cc(Cn3c(-c4cccc(Br)c4)nc(-c4ccccc4)c3-c3ccccc3)nn2)cc1
29.3 µM | Cc1ccccc1NC(=O)Cn1cc(Cn2c(-c3ccc(Br)cc3)nc(-c3ccccc3)c2-c2ccccc2)nn1
29.2 µM | COc1cc(-c2nc(-c3ccccc3)c(-c3ccccc3)n2Cc2cn(CC(=O)Nc3ccc(Cl)cc3)nn2)cc(OC)c1OC
21.6 µM | COc1ccc(-c2nc(-c3ccccc3)c(-c3ccccc3)n2Cc2cn(CC(=O)Nc3ccc(Cl)cc3Cl)nn2)cc1OC
20.2 µM | COC(=O)c1ccc(-c2nc(-c3ccccc3)c(-c3ccccc3)n2Cc2cn(CC(=O)Nc3cc(Cl)ccc3Cl)nn2)cc1
38.5 µM | Cc1ccc(NC(=O)Cn2cc(Cn3c(-c4cccc(Cl)c4)nc(-c4ccccc4)c3-c3ccccc3)nn2)c(C)c1

Compound | IC50
CCOc1ccccc1NC(=O)Cn1cc(Cn2c(-c3cccc(Br)c3)nc(-c3ccccc3)c2-c2ccccc2)nn1 | 15.2 µM

What follows are compounds tested against T1, Alpha-glucosidase MAL12 (assay: Non-competitive inhibition of bakers yeast alpha-glucosidase using p-nitrophenyl-alpha-D-glucopyranoside as substrate by Lineweaver-Burk plot analysis).

Compound | Ki
CCOc1ccccc1NC(=O)Cn1cc(Cn2c(-c3cccc(Br)c3)nc(-c3ccccc3)c2-c2ccccc2)nn1 | 14.8 µM
